Measured values reported in the supplement of paper PMC10307832.

Assays:
Assay in all cases: relative viability (nuclei count vs DMSO), 5 days (fraction); higher = more cells survive
[1] = compound: Nc1nc2[nH]cc(CCc3ccc(C(=O)N[C@@H](CCC(=O)O)C(=O)O)cc3)c2c(=O)[nH]1 [Pemetrexed] + COc1cccc2cc(-c3nc([C@H]4CC[C@H](C(=O)O)CC4)n4ncnc(N)c34)[nH]c12 [OSI-027] (partner 0.5 µM)
Procedure, shortened: (§1)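 Lung cancer cell lines were pin-tool dosed in 1536-well plates on the day after seeding, with either a lone drug or a fixed anchor-drug dose plus five library-drug doses (not always all listed) in √10 steps. Nuclei were counted on 4× images after 5 days. Relative viability is the ratio of treated-well to vehicle-well nuclei counts, with each value a median of duplicate plates.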

[2] = compound: CC[C@H](Nc1ncnc2[nH]cnc12)c1nc2cccc(F)c2c(=O)n1-c1ccccc1 [Idelalisib] + N=C(N)NC(=N)NCCc1ccccc1 [Phenformin] (partner 250 µM)
Procedure, shortened: as §1

[3] = compound: CC[C@H](Nc1ncnc2[nH]cnc12)c1nc2cccc(F)c2c(=O)n1-c1ccccc1 [Idelalisib] + C[C@]1(O)C[C@@H](c2nc(-c3ccc4ccc(-c5ccccc5)nc4c3)c3c(N)nccn32)C1 [Linsitinib] (partner 1 µM)
Procedure, shortened: as §1

[4] = compound: Nc1nc2[nH]cc(CCc3ccc(C(=O)N[C@@H](CCC(=O)O)C(=O)O)cc3)c2c(=O)[nH]1 [Pemetrexed] + CC(=O)c1c(C)c2cnc(Nc3ccc(N4CCNCC4)cn3)nc2n(C2CCCC2)c1=O [Palbociclib] (partner 0.5 µM)
Procedure, shortened: as §1

**Q.** With PC-3 [JPC-3] as the cell line, how does the relative viability ([1]; first compound 0.002 µM) read?
**A.** 0.59

**Q.** What about the relative viability ([1]; first compound 0.006325 µM) of the same cell line?
**A.** 0.786

**Q.** And the relative viability ([1]; first compound 0.02 µM)?
**A.** 0.715

**Q.** And the relative viability ([1]; first compound 0.06325 µM)?
**A.** 0.916

**Q.** And the relative viability ([1]; first compound 0.2 µM)?
**A.** 0.765

**Q.** What about the relative viability ([2]; first compound 0.04 µM) of the same cell line?
**A.** 0.454

**Q.** And the relative viability ([2]; first compound 0.1265 µM)?
**A.** 0.484

**Q.** And the relative viability ([2]; first compound 0.4 µM)?
**A.** 0.477

**Q.** What about the relative viability ([2]; first compound 1.265 µM) of the same cell line?
**A.** 0.451

**Q.** And the relative viability ([2]; first compound 4 µM)?
**A.** 0.42

**Q.** What about the relative viability ([3]; first compound 0.04 µM) of the same cell line?
**A.** 0.972

**Q.** And the relative viability ([3]; first compound 0.1265 µM)?
**A.** 0.976

**Q.** And the relative viability ([3]; first compound 0.4 µM)?
**A.** 0.986

**Q.** What about the relative viability ([3]; first compound 1.265 µM) of the same cell line?
**A.** 0.95

**Q.** And the relative viability ([3]; first compound 4 µM)?
**A.** 0.893

**Q.** And the relative viability ([4]; first compound 0.002 µM)?
**A.** 0.483

**Q.** And the relative viability ([4]; first compound 0.006325 µM)?
**A.** 0.54

**Q.** What about the relative viability ([4]; first compound 0.02 µM) of the same cell line?
**A.** 0.536

**Q.** What about the relative viability ([4]; first compound 0.06325 µM) of the same cell line?
**A.** 0.578

**Q.** And the relative viability ([4]; first compound 0.2 µM)?
**A.** 0.503

**Q.** What does the source list for HCC-366?
**A.** relative viability ([1]; first compound 0.002 µM): 0.485; relative viability ([1]; first compound 0.006325 µM): 0.795; relative viability ([1]; first compound 0.02 µM): 1.04; relative viability ([1]; first compound 0.06325 µM): 0.922; relative viability ([1]; first compound 0.2 µM): 0.816; relative viability ([2]; first compound 0.04 µM): 0.597; relative viability ([2]; first compound 0.1265 µM): 0.639; relative viability ([2]; first compound 0.4 µM): 0.619; relative viability ([2]; first compound 1.265 µM): 0.632; relative viability ([2]; first compound 4 µM): 0.679; relative viability ([3]; first compound 0.04 µM): 0.619; relative viability ([3]; first compound 0.1265 µM): 0.598; relative viability ([3]; first compound 0.4 µM): 0.444; relative viability ([3]; first compound 1.265 µM): 0.578; relative viability ([3]; first compound 4 µM): 0.253; relative viability ([4]; first compound 0.002 µM): 0.356; relative viability ([4]; first compound 0.006325 µM): 0.349; relative viability ([4]; first compound 0.02 µM): 0.349; relative viability ([4]; first compound 0.06325 µM): 0.367; relative viability ([4]; first compound 0.2 µM): 0.226

**Q.** NCI-H1651 was tested. Which relative viability ([1]; first compound 0.002 µM) did it give?
**A.** 0.61

**Q.** What about the relative viability ([1]; first compound 0.006325 µM) of the same cell line?
**A.** 0.66

**Q.** And the relative viability ([1]; first compound 0.02 µM)?
**A.** 0.805

**Q.** What about the relative viability ([1]; first compound 0.06325 µM) of the same cell line?
**A.** 0.624

**Q.** And the relative viability ([1]; first compound 0.2 µM)?
**A.** 0.717

**Q.** What about the relative viability ([2]; first compound 0.04 µM) of the same cell line?
**A.** 0.35

**Q.** What about the relative viability ([2]; first compound 0.1265 µM) of the same cell line?
**A.** 0.372

**Q.** And the relative viability ([2]; first compound 0.4 µM)?
**A.** 0.258

**Q.** And the relative viability ([2]; first compound 1.265 µM)?
**A.** 0.322

**Q.** What about the relative viability ([2]; first compound 4 µM) of the same cell line?
**A.** 0.321

**Q.** And the relative viability ([3]; first compound 0.04 µM)?
**A.** 0.982

**Q.** And the relative viability ([3]; first compound 0.1265 µM)?
**A.** 0.903

**Q.** What about the relative viability ([3]; first compound 0.4 µM) of the same cell line?
**A.** 0.789

**Q.** What about the relative viability ([3]; first compound 1.265 µM) of the same cell line?
**A.** 0.923

**Q.** And the relative viability ([3]; first compound 4 µM)?
**A.** 0.714

**Q.** What about the relative viability ([4]; first compound 0.002 µM) of the same cell line?
**A.** 0.548

**Q.** What about the relative viability ([4]; first compound 0.006325 µM) of the same cell line?
**A.** 0.477

**Q.** And the relative viability ([4]; first compound 0.02 µM)?
**A.** 0.52

**Q.** And the relative viability ([4]; first compound 0.06325 µM)?
**A.** 0.495

**Q.** And the relative viability ([4]; first compound 0.2 µM)?
**A.** 0.529

**Q.** What does the source list for NCI-H1355?
**A.** relative viability ([1]; first compound 0.002 µM): 0.391; relative viability ([1]; first compound 0.006325 µM): 0.389; relative viability ([1]; first compound 0.02 µM): 0.466; relative viability ([1]; first compound 0.06325 µM): 0.509; relative viability ([1]; first compound 0.2 µM): 0.387; relative viability ([2]; first compound 0.04 µM): 0.476; relative viability ([2]; first compound 0.1265 µM): 0.502; relative viability ([2]; first compound 0.4 µM): 0.364; relative viability ([2]; first compound 1.265 µM): 0.448; relative viability ([2]; first compound 4 µM): 0.411; relative viability ([3]; first compound 0.04 µM): 0.893; relative viability ([3]; first compound 0.1265 µM): 0.789; relative viability ([3]; first compound 0.4 µM): 0.599; relative viability ([3]; first compound 1.265 µM): 0.701; relative viability ([3]; first compound 4 µM): 0.596; relative viability ([4]; first compound 0.002 µM): 0.372; relative viability ([4]; first compound 0.006325 µM): 0.391; relative viability ([4]; first compound 0.02 µM): 0.391; relative viability ([4]; first compound 0.06325 µM): 0.413; relative viability ([4]; first compound 0.2 µM): 0.402

**Q.** What does the source list for LC-2-ad?
**A.** relative viability ([1]; first compound 0.002 µM): 0.606; relative viability ([1]; first compound 0.006325 µM): 0.831; relative viability ([1]; first compound 0.02 µM): 0.561; relative viability ([1]; first compound 0.06325 µM): 0.28; relative viability ([1]; first compound 0.2 µM): 0.339; relative viability ([2]; first compound 0.04 µM): 0.602; relative viability ([2]; first compound 0.1265 µM): 0.592; relative viability ([2]; first compound 0.4 µM): 0.462; relative viability ([2]; first compound 1.265 µM): 0.626; relative viability ([2]; first compound 4 µM): 0.546; relative viability ([3]; first compound 0.04 µM): 0.966; relative viability ([3]; first compound 0.1265 µM): 0.848; relative viability ([3]; first compound 0.4 µM): 0.805; relative viability ([3]; first compound 1.265 µM): 0.75; relative viability ([3]; first compound 4 µM): 0.719; relative viability ([4]; first compound 0.002 µM): 0.452; relative viability ([4]; first compound 0.006325 µM): 0.501; relative viability ([4]; first compound 0.02 µM): 0.524; relative viability ([4]; first compound 0.06325 µM): 0.431; relative viability ([4]; first compound 0.2 µM): 0.404

**Q.** For NCI-H1944, which relative viability ([1]; first compound 0.006325 µM) is on record?
**A.** 0.512

**Q.** What about the relative viability ([1]; first compound 0.02 µM) of the same cell line?
**A.** 0.43

**Q.** And the relative viability ([1]; first compound 0.06325 µM)?
**A.** 0.405

**Q.** What about the relative viability ([1]; first compound 0.2 µM) of the same cell line?
**A.** 0.403

**Q.** What about the relative viability ([2]; first compound 0.04 µM) of the same cell line?
**A.** 0.237

**Q.** What about the relative viability ([2]; first compound 0.1265 µM) of the same cell line?
**A.** 0.204

**Q.** What about the relative viability ([2]; first compound 0.4 µM) of the same cell line?
**A.** 0.158

**Q.** What about the relative viability ([2]; first compound 1.265 µM) of the same cell line?
**A.** 0.187

**Q.** And the relative viability ([2]; first compound 4 µM)?
**A.** 0.175

**Q.** What about the relative viability ([3]; first compound 0.04 µM) of the same cell line?
**A.** 1.19

**Q.** And the relative viability ([3]; first compound 0.1265 µM)?
**A.** 1.06

**Q.** And the relative viability ([3]; first compound 0.4 µM)?
**A.** 1.06

**Q.** What about the relative viability ([3]; first compound 1.265 µM) of the same cell line?
**A.** 1.14

**Q.** And the relative viability ([3]; first compound 4 µM)?
**A.** 0.808

**Q.** And the relative viability ([4]; first compound 0.002 µM)?
**A.** 0.286

**Q.** What about the relative viability ([4]; first compound 0.006325 µM) of the same cell line?
**A.** 0.304

**Q.** And the relative viability ([4]; first compound 0.02 µM)?
**A.** 0.339

**Q.** And the relative viability ([4]; first compound 0.06325 µM)?
**A.** 0.312

**Q.** And the relative viability ([4]; first compound 0.2 µM)?
**A.** 0.343
